In ChEMBL document CHEMBL3797079, “Synergistic reduction of HIV-1 infectivity by 5-azacytidine and inhibitors of ribonucleotide reductase” (Bioorg Med Chem, 2016):
Activity calls are given as the source filed them. The calls are words filed in the database; no cut-off is given here.

Experiments:
[1] = system: Human immunodeficiency virus 1; assay: Antiviral activity against VSV-G pseudotyped HIV-1 NL4-3 infected in human U373-MAGI cells assessed as Pol mutation at 3.8 uM incubated for 2 hrs prior to infection measured at 72 hrs post infection by illumina sequencing method (reference value: 18.5%); format: functional
[2] = system: Human immunodeficiency virus 1; assay: Antiviral activity against VSV-G pseudotyped HIV-1 NL4-3 infected in human U373-MAGI cells assessed as Env mutation at 3.8 uM incubated for 2 hrs prior to infection measured at 72 hrs post infection by illumina sequencing method (reference value: 21.4%); format: functional
[3] = Reduction in dCTP level in human U373-MAGI cells at EC75 after 4 hrs by LC-MS/MS analysis relative to control; format: functional; set-up: scale not given: the % may be the effect or the level left
[4] = system: Human immunodeficiency virus 1; assay: Antiviral activity against VSV-G pseudotyped HIV-1 NL4-3 infected in human U373-MAGI cells assessed as Vif mutation at 3.8 uM incubated for 2 hrs prior to infection measured at 72 hrs post infection by illumina sequencing method (reference value: 19.2%); format: functional
[5] = system: Human immunodeficiency virus 1; assay: Antiviral activity against VSV-G pseudotyped HIV-1 NL4-3 infected in human U373-MAGI cells assessed as reduction in gag level at 0.25 to 8 uM after 2 to 72 hrs by qPCR method; format: functional, organism-based
[6] = system: Human immunodeficiency virus 1; assay: Antiviral activity against VSV-G pseudotyped HIV-1 NL4-3 infected in human U373-MAGI cells assessed as Gag mutation at 3.8 uM incubated for 2 hrs prior to infection measured at 72 hrs post infection by illumina sequencing method (reference value: 18.4%); format: functional
[7] = system: Human immunodeficiency virus 1; assay: Antiviral activity against VSV-G pseudotyped HIV-1 NL4-3 infected in human U373-MAGI cells assessed as Nef mutation at 3.8 uM incubated for 2 hrs prior to infection measured at 72 hrs post infection by illumina sequencing method (reference value: 22.6%); format: functional
[8] = system: Human immunodeficiency virus 1; assay: Antiviral activity against VSV-G pseudotyped HIV-1 NL4-3 infected in human U373-MAGI cells assessed as reduction in U5-gag level at 0.25 to 8 uM after 2 to 72 hrs by qPCR method; format: functional, organism-based

Nc1ncn([C@H]2C[C@H](O)[C@@H](CO)O2)c(=O)n1 [DECITABINE]
Activity [1]: 26% | Activity [2]: 20.5% | Activity [3]: 50% | Activity [4]: 15.9% | Activity [5]: Active | Activity [6]: 16% | Activity [7]: 21.5% | Activity [8]: Active
